≈ marks a conversion by molar mass, not a printed value.
Legend:
Aspergillus flavus = test: 3 day MIC, broth microdilution in 25% PDB; format: cell-based; conditions: 72 h
Description: (§1) Stock solutions (concentrations of between 4,000 μg/mL to 10,000 μg/mL; stored at −18° C.) of the above antifungals were prepared in dimethyl sulfoxide (DMSO). The stock solutions were further diluted into sterile 25% potato dextrose broth (PDB) so that the diluted solutions could be used for the antifungal susceptibility studies. This way, a typical microdilution study would reach a final ratio of about 0.5-2% v/v of DMSO in 25% PDB.
(§2) Spore inocula were prepared in sterile distilled water with 0.1% Tween® 20 (a polysorbate surfactant), and a hemocytometer was used to determine the spore density. Typically, the spore inoculum was prepared fresh prior to each study, and the inoculum was appropriately diluted to a final concentration of 0.4-1×10^5 spores/mL or colony-forming unit (CFU)/mL in each study. The spore suspension can be stored in a refrigerator at 4° C. for up to one week.
(§3) The minimal inhibitory concentrations (MICs) for individual antifungal agents were determined by following a modified broth microdilution protocol CLSI (Clinical and Laboratory Standards Institute) M38-A2 [Clinical and Laboratory Standards Institute (2008) Reference method for broth dilution antifungal susceptibility testing of filamentous fungi—2nd edition: Approved Standard M38-A2, CLSI, Wayne, Pa.] where 25% potato dextrose broth (PDB) was used as the medium. The studies were performed in flat bottom, 96-well microtiter plates (Greiner Bio-One, Frickenhausen, Germany).
(§4) Plates sealed with clear polyester film (VWR, Radnor, Pa.) were incubated at a temperature of about 25° C. The progress of fungal growth was monitored at 48 hours and 72 hours.

Aspergillus fumigatus = test: 3 day MIC, broth microdilution in 25% PDB; format: cell-based; conditions: 72 h
Description: as §1, §2, §3, §4

Aspergillus niger = test: 3 day MIC, broth microdilution in 25% PDB; format: cell-based; conditions: 72 h
Description: as §1, §2, §3, §4

Aureobasidium pullulans = test: 3 day MIC, broth microdilution in 25% PDB; format: cell-based; conditions: 72 h
Description: as §1, §2, §3, §4

[1] = tested on: Cladosporium cladosporioides; test: 3 day MIC, broth microdilution in 25% PDB; format: cell-based; conditions: 72 h
Description: as §1, §2, §3, §4

Fusarium oxysparum ST-33 = test: 3 day MIC, broth microdilution in 25% PDB; format: cell-based; conditions: ST33, 72 h
Description: as §1, §2, §3, §4

Mucor spp. = test: 3 day MIC, broth microdilution in 25% PDB; format: cell-based; conditions: 72 h
Description: as §1, §2, §3, §4

Rhizopus spp. = test: 3 day MIC, broth microdilution in 25% PDB; format: cell-based; conditions: 72 h
Description: as §1, §2, §3, §4

Alternaria alternata = test: Fungus resistance test after painting over fungal growth (defacement rating); format: cell-based; conditions: painted over fungal growth
Text: (§5) In this series of experiments, fungal growth was allowed to cover a painted surface (surface containing 2 coats of the unaltered paint) to a defacement rating of 3-5, forming a ‘contaminated surface’. […] The paint application was extended approximately 1-2 cm beyond the edge of the disc onto the NSA medium. Each formulation used a separate brush to avoid cross contamination. The re-painted discs were placed back into the humid environment with elevated temperature to encourage fungal growth.
(§6) This test was used to evaluate the ability of paint films containing antifungal additives to prevent the re-emergence of fungal growth after painting over existing growth.
(§7) Olympic® Home interior flat latex paint (PPG Industries, Pittsburgh, Pa.) and Valspar® QuikHide White flat interior paint (Valspar Corporation, Minneapolis, Minn.) were used for the experiments in this study unless specified. Stock solutions of the antifungal additives of interest were prepared in reagent grade dimethyl sulfoxide (DMSO; Alfa Aesar, Ward Hill, Mass.). Additives were spiked (by adding appropriate amounts of the antifungal stock solutions) into the liquid paint at specified concentrations. Samples of additive-spiked paint were vigorously mixed with a vortex mixer for at least one minute to insure uniform dispersion of the additive in the paint. […] Studies that used other brands of paint followed the same protocol as described for those using the Olympic® Home interior flat latex paint.
(§8) Test surfaces were prepared in triplicate. In most cases, the tested conditions were repeated on a different date, again in triplicate. […] Two coats of paint were applied with a polyester brush to completely cover both faces of the filter paper disc, allowing at least four hours drying time between coats.
(§9) Nutrient-Salts Agar (NSA) media was prepared according to ASTM method G21-13 in 100×15 mm sterile polystyrene petri dishes (VWR® Radnor, Pa.) with a solidified agar layer from 3 to 6 mm (⅛ to ¼ in.) in depth. The agar was allowed to solidify for at least 24 hours before being used. The painted test filter paper discs were placed in the center of the agar plates in a biosafety hood while wearing clean nitrile gloves.
(§10) The paint coatings were evaluated against three representative fungi: Stachybotrys chartarum, Penicillium chrysogenum, and Alternaria alternata. […] Fungal isolates of Alternaria alternata and Penicillium chrysogenum were obtained from the Plant Pathology and Environmental Microbiology Department at Penn State University.
(§11) A spore suspension of each of these fungi was prepared by pouring a 20-mL portion of autoclaved deionized water containing 0.01% Tween® 20 onto a subculture of each fungal species. Spores were counted with the use of a hemocytometer (Hausser Scientific, Horsham, Pa.) under a microscope. Spore suspensions of Stachybotrys chartarum and Penicillium chrysogenum were diluted to 1×10^6 spores/mL with autoclaved deionized water. Spore suspensions of Alternaria alternata were used “as is” in the range of 200,000 to 400,000 spores/mL.
(§12) Painted test surfaces were inoculated with a spray bottle or with a cotton-tipped applicator. To inoculate the sample with a spray bottle, the spore suspension was sprayed twice on the painted test discs with a spray bottle that delivered approximately 0.14 g of fluid per spray. To inoculate the sample with a cotton-tipped applicator, an autoclaved cotton-tipped applicator was submerged in approximately 400 μL of the inoculum solution and applied evenly over the surface of the painted test surface twice.

Penicillium chrysogenum = test: as above; format: cell-based; conditions: painted over fungal growth, +200 μg/mL in Valspar QuikHide paint
Text: as §5, §6, §7, §8, §9, §10, §11, §12

Stachybotrys chartarum = test: as above; format: cell-based; conditions: painted over fungal growth, +100 μg/mL in Olympic Home paint
Text: as §5, §6, §7, §8, §9, §10, §11, §12

[2] = commercially available fungicidal agents; cited from earlier work

c1ccc2[nH]c(-c3cscn3)nc2c1 [Thiabendazole]
MIC (Aspergillus flavus): 12.5 µg/mL (≈ 62.1 µM)
MIC (Aspergillus fumigatus): 6.25 µg/mL (≈ 31.1 µM)
MIC (Aspergillus niger): 12.5 µg/mL (≈ 62.1 µM)
MIC (Aureobasidium pullulans): 0.4 µg/mL (≈ 1.99 µM)
MIC [1]: 0.8 µg/mL (≈ 3.98 µM)
MIC (Fusarium oxysparum ST-33): 25 µg/mL (≈ 124 µM)
MIC (Mucor spp.): > 200 µg/mL
MIC (Rhizopus spp.): 400 µg/mL (≈ 1990 µM)
Average defacement rating ± standard deviation (Alternaria alternata; +100 μg/mL in Olympic Home paint, 7 days): 0.0 ± 0.0 (6)
Average defacement rating ± standard deviation (Alternaria alternata; +100 μg/mL in Olympic Home paint, 14 days): 0.0 ± 0.0 (6)
Average defacement rating ± standard deviation (Alternaria alternata; +100 μg/mL in Olympic Home paint, 21 days): 0.0 ± 0.0 (6)
Average defacement rating ± standard deviation (Alternaria alternata; +1000 μg/mL in Olympic Home paint, 7 days): 7.3 ± 1.3 (10)
Average defacement rating ± standard deviation (Alternaria alternata; +1000 μg/mL in Olympic Home paint, 14 days): 3.6 ± 1.7 (10)
Average defacement rating ± standard deviation (Alternaria alternata; +1000 μg/mL in Olympic Home paint, 21 days): 2.8 ± 1.1 (10)
Average defacement rating ± standard deviation (Penicillium chrysogenum; 7 days): 6.7 ± 4.6 (9)
Average defacement rating ± standard deviation (Penicillium chrysogenum; 14 days): 2.2 ± 4.4 (9)
Average defacement rating ± standard deviation (Penicillium chrysogenum; 21 days): 2.2 ± 4.4 (9)
Average defacement rating ± standard deviation (Stachybotrys chartarum; 7 days): 0.7 ± 1.6 (6)
Average defacement rating ± standard deviation (Stachybotrys chartarum; 14 days): 0.2 ± 0.8 (6)
Average defacement rating ± standard deviation (Stachybotrys chartarum; 21 days): 0.2 ± 0.8 (6)
Solubility in water [2]: 8 µg/mL (≈ 39.8 µM)
